Patent publication US20180256592A1, “ANTIBACTERIAL COMPOSITIONS” (priority 2015, published 2018)

Experiments:
Type in all cases: cell-based
[1] = system: highly resistant gram negative bacterial strains; experiment: MIC by agar dilution (MHA, CLSI), whole strain panel of Table 1; details: read-out: MICs when used alone
Procedure: (§1) The antibacterial activity of combinations according to the invention was investigated against various bacterial strains. In a typical study, minimum inhibitory concentrations (MICs) were determined using Muller Hinton Agar (MHA) (BD, USA) according to Clinical and Laboratory Standards Institute (CLSI) recommendations, (Clinical and Laboratory Standards Institute (CLSI), Performance Standards for Antimicrobial Susceptibility Testing, 20th Informational Supplement, M 100-S20, Volume 30, No. 1, 2010). In short, the inocula were adjusted to deliver about […] colony forming units (CFU) per spot with a multipoint inoculator (Applied Quality Services, UK). The plates were pored with doubling concentration range of the test combinations according to invention containing MHA. The plates were inoculated and were incubated at 35° C. for 18 hours.

[2] = system: Klebsiella J 102 (TEM, SHV, OMP); experiment: MIC by agar dilution (MHA, CLSI); details: drug alone
Procedure: as §1

[3] = system: Klebsiella J 117 (SHV, OMP); experiment: MIC by agar dilution (MHA, CLSI); details: drug alone
Procedure: as §1

[4] = system: Klebsiella H 521 (KPC, class A); experiment: MIC by agar dilution (MHA, CLSI); details: drug alone
Procedure: as §1

[5] = system: Klebsiella J 101 (TEM, SHV, OMP); experiment: MIC by agar dilution (MHA, CLSI); details: drug alone
Procedure: as §1

[6] = system: Klebsiella H 520 (KPC, class A); experiment: MIC by agar dilution (MHA, CLSI); details: drug alone
Procedure: as §1

[7] = system: NCTC KP 13442 (OXA-48); experiment: MIC by agar dilution (MHA, CLSI); details: drug alone
Procedure: as §1

[8] = system: Klebsiella H 523 (KPC, class A); experiment: MIC by agar dilution (MHA, CLSI); details: drug alone
Procedure: as §1

[9] = system: Klebsiella J 130 (SHV, OMP); experiment: MIC by agar dilution (MHA, CLSI); details: drug alone
Procedure: as §1

[10] = system: Klebsiella H 515 (KPC, class A); experiment: MIC by agar dilution (MHA, CLSI); details: drug alone
Procedure: as §1

[11] = system: KP S 440 (OXA 181, SHV, TEM, CTX-M 1); experiment: MIC by agar dilution (MHA, CLSI); details: drug alone
Procedure: as §1

## O=C(O)[C@H]1/C(=C/CO)O[C@@H]2CC(=O)N21 [Clavulanic acid, clavulanic acid]
[1]
  MIC: > 32 µg/mL

## C[C@@H](O)[C@H]1C(=O)N2C(C(=O)O)=C(SCCN=CN)C[C@H]12 [Imipenem]
[2]
  MIC: 8 µg/mL
[3]
  MIC: 2 µg/mL
[4]
  MIC: > 32 µg/mL
[5]
  MIC: 4 µg/mL
[6]
  MIC: > 32 µg/mL
[7]
  MIC: 2 µg/mL
[8]
  MIC: > 32 µg/mL
[9]
  MIC: 4 µg/mL
[10]
  MIC: 16 µg/mL
[11]
  MIC: 2 µg/mL

## CC1(C)[C@H](C(=O)O)N2C(=O)C[C@H]2S1(=O)=O [Sulbactam, sulbactam]
[1]
  MIC: > 32 µg/mL

## C[C@]1(Cn2ccnn2)[C@H](C(=O)O)N2C(=O)C[C@H]2S1(=O)=O [Tazobactam, tazobactam]
[1]
  MIC: > 32 µg/mL
